In experiment [1] the test system is U2OS HRE-luciferase reporter, luminescence, HIF pathway activation. Kind of experiment: PubChem AID 493193.
A short description of a further experiment: PubChem AID 493193. The settings on record: U2OS HRE-luciferase reporter, luminescence, HIF pathway activation; at 38 µM (top of the series).

Activity calls are given as the source filed them. How the calls were made is not given here.

Consider `c1ccc(-c2nnc(-c3ccccn3)nc2NCc2cccnc2)cc1`, for which the AC40 in experiment [1] was 24.3 µM.

For the molecule `Oc1ccc(CN2CCc3ccccc3C2)c2cccnc12`, in “PubChem AID 493193”, the activation is 0.929% (inactive). The AC40 in experiment [1] was 19.5 µM.

In the case of `COc1ccc(CNc2nc(-c3ccccn3)nnc2-c2ccccc2)cc1`, the AC40 in experiment [1] was 5.05 µM.

For the molecule `Oc1ccc(CN2CCC(Cc3ccccc3)CC2)c2cccnc12`, the activation in the experiment “PubChem AID 493193” is 14.5% (inactive).

In the case of `CC(C)(C)CCNc1nc(-c2ccccn2)nnc1-c1ccccc1`, in experiment [1], the AC40 was 2.74 µM.

For `CC1CN(Cc2ccc(O)c3ncccc23)CC(C)O1` (stereo not given), the activation in “PubChem AID 493193” was 1.16% (inactive).

For the molecule `OCC1CCN(Cc2ccc(O)c3ncccc23)CC1`, the activation in “PubChem AID 493193” was 8.79% (inactive).

In the case of `N#CC1(c2ccccc2)CCN(Cc2ccc(O)c3ncccc23)CC1`, the activation in the experiment “PubChem AID 493193” is 9.09% (inactive).

Take `Cc1ccc(CNc2nc(-c3ccccn3)nnc2-c2ccccc2)cc1C`: the AC40 in experiment [1] was 3.09 µM.

Regarding `CC(Nc1nc(-c2ccccn2)nnc1-c1ccccc1)c1ccccc1` (stereo not given), the AC40 in experiment [1] was 5.33 µM.

In the case of `CC(C)(C)OC(=O)N1CCN(Cc2ccc(O)c3ncccc23)CC1`, in the experiment “PubChem AID 493193”, the activation is 4.98% (inactive).

Turning to `Oc1ccc(CNC2Cc3ccccc3C2)c2cccnc12`, the activation in “PubChem AID 493193” was 21.4% (inactive).

For `COc1ccccc1N1CCN(Cc2ccc(O)c3ncccc23)CC1`, the activation in “PubChem AID 493193” was 10.3% (inactive).

With `Oc1ccc(CNC2CCc3ccccc32)c2cccnc12` (stereo not given), the activation in “PubChem AID 493193” is 7.38% (inactive).

As to `Clc1cccc(CNc2nc(-c3ccccn3)nnc2-c2ccccc2)c1`, the AC40 in experiment [1] is 2.5 µM.

Regarding `C[C@H](Nc1nc(-c2ccccn2)nnc1-c1ccccc1)C1CCCCC1`, the AC40 in experiment [1] is 4.15 µM.

Consider `c1ccc(-c2ccc(CNc3nc(-c4ccccn4)nnc3-c3ccccc3)cc2)cc1`, for which the AC40 in experiment [1] was 1.92 µM.

`c1ccc(-c2nnc(-c3ccccn3)nc2N2CCC(c3ccccc3)C2)cc1` (stereo not given): the AC40 in experiment [1] is 3.55 µM.

In the case of `Oc1ccc(CN2CCC3CCCCC3C2)c2cccnc12` (stereo not given), the AC40 in experiment [1] was 32.7 µM.

Turning to `c1ccc(CCNc2nc(-c3ccccn3)nnc2-c2ccccc2)cc1`, the AC40 in experiment [1] was 2.98 µM.

With `C[C@@H](Nc1nc(-c2ccccn2)nnc1-c1ccccc1)c1ccccc1`, the AC40 in experiment [1] is 6.45 µM.

In the case of `COc1cccc(CNc2nc(-c3ccccn3)nnc2-c2ccccc2)c1`, in experiment [1], the AC40 is 4.85 µM.

With `c1ccc(-c2nnc(-c3ccccn3)nc2NCC2CCOCC2)cc1`, in experiment [1], the AC40 is 26.1 µM.

As to `c1ccc(-c2nnc(-c3ccccn3)nc2NCCc2ccccn2)cc1`, the AC40 in experiment [1] was 15.4 µM.

As for `c1ccc(-c2cccc(CNc3nc(-c4ccccn4)nnc3-c3ccccc3)c2)cc1`, in experiment [1], the AC40 was 2.15 µM.

On to `c1ccc(-c2nnc(-c3ccccn3)nc2NCc2ccccn2)cc1`, for which, in experiment [1], the AC40 was 26 µM.

On to `CC(C)(C)c1ccc(CNc2nc(-c3ccccn3)nnc2-c2ccccc2)cc1`, for which the AC40 in experiment [1] was 2.09 µM.

Regarding `C[C@@H](Nc1nc(-c2ccccn2)nnc1-c1ccccc1)C1CCCCC1`, in experiment [1], the AC40 was 6.18 µM.

For `c1ccc(-c2nnc(-c3ccccn3)nc2N2CCC(C3CCCCC3)C2)cc1` (stereo not given), the AC40 in experiment [1] is 3.71 µM.

The values are drawn from PubChem BioAssay AID493193 (Broad Institute, 2011).
